Results published in ChEMBL document CHEMBL1129764, “Synthesis of N-kojic-amino acid and N-kojic-amino acid-kojiate and their tyrosinase inhibitory activity” (Bioorg Med Chem Lett, 1996).

Molecular target: T1, Tyrosinase (Homo sapiens, UniProt P14679)
T1 sequence (P14679 whole entry): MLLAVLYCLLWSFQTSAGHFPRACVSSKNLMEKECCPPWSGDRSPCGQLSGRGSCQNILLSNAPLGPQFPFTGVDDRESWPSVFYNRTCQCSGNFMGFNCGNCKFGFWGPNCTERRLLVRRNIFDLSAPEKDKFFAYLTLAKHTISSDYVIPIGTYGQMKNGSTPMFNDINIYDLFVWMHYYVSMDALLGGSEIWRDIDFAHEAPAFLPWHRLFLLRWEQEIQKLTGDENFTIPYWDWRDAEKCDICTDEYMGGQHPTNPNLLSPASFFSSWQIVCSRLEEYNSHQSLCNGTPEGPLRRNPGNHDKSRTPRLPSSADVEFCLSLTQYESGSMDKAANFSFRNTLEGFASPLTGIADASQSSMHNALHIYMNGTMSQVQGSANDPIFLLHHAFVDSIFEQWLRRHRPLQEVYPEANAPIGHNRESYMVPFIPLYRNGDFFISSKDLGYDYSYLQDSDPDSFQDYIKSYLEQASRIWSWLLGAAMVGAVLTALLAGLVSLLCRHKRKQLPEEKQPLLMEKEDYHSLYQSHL
Assay: Compound was evaluated for inhibition of tyrosinase enzyme; Not active; call rule not given here
Parameters: species or system mushroom

Question: How did the IC50 turn out when `N[C@@H](Cc1ccccc1)C(=O)O` [PHENYLALANINE] was run?
Answer: Its IC50 is “Not Active”.
